Results on 16 molecules are retold here after patent US8513423B2 (Janssen Pharmaceutica, NV, priority 2010, dated 2013).

For orientation: IC50 means the point on the concentration scale where inhibition reaches its midpoint.

Assay [1] addresses T1, mutant MGL (Homo sapiens, UniProt Q99685, L169S/L176S).
T1 construct: purified mutant MGL (mut-MGLL 11-313 L179S L186S)
T1 sequence (Q99685 1-303 L169S/L176S): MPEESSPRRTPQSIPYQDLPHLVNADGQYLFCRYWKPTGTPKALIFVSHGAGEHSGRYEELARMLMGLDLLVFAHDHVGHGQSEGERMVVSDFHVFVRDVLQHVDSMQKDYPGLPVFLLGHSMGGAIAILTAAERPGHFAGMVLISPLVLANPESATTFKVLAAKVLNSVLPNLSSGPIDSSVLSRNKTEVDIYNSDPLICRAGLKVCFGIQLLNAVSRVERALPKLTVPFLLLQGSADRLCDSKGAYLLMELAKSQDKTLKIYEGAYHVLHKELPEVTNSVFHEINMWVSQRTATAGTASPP
The assay is described as follows: MGL ThermoFluor assay - mutant. Format: binding. The gist of the method:
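Thermal shift binding with 0.07 mg/ml L169S/L176S MGL, 100 μM 1,8-ANS, 200 mM NaCl, 0.001% Tween-20, 50 mM PIPES pH 7.0. Heated 40–90 °C at 1 °C/min, fluorescence (em 500 nm) tracked to give Tm; Kd fitted from 11-point concentration–Tm response, qKd when stocks quantified by qNMR.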
Background: Differential scanning fluorimetry follows unfolding on heating by fluorescence.

The target of assay [2] is T2, purified mutant MGL (mut-MGLL 11-313 L179S L186S) (Homo sapiens, UniProt Q99685, L169S/L176S).
T2 construct: purified mutant MGL (mut-MGLL 11-313 L179S L186S)
T2 sequence (Q99685 1-303 L169S/L176S): T1 sequence (Q99685 1-303 L169S/L176S)
The assay is described as follows: MGL enzyme activity assay (4MU-B cleavage), mutant MGL. Format: biochemical. To be noted: 10 μM 4MU-B, 5 nM enzyme, 37° C., read-out: MGL mutant inh IC50. The protocol:
All rate-based assays were performed in black 384-well polypropylene PCR microplates (Abgene) in a total volume of 30 μL. Substrate 4-methylumbelliferyl butyrate (4MU-B; Sigma) and either purified mutant MGL (mut-MGLL 11-313 L179S L186S) or purified wild type MGL (wt-MGLL 6H-11-313) were diluted separately into 20 mM PIPES buffer (pH=7.0), containing 150 mM NaCl and 0.001% Tween 20. Compounds of Formula (I) were pre-dispensed (50 nL) into the assay plate using a Cartesian Hummingbird prior to adding 4MU-B (25 μL of 1.2× solution to a final concentration of 10 μM) followed by enzyme (5 μL of a 6× solution to a final concentration of 5 nM) to initiate the reaction. Final compound concentrations ranged from 17 to 0.0003 μM. The fluorescence change due to 4MU-B cleavage was monitored with excitation and emission wavelengths of 335 and 440 nm, respectively, and a bandwidth of 10 nm (Safire^2, Tecan) at 37° C. for 5 min.
The IC50 values for compounds of Formula (I) were determined using Excel from a fit of the equation to the concentration-response plot of the fractional activity as a function of inhibitor concentration.

The target of assay [3] is T3, MGL (Rattus norvegicus, UniProt Q8R431).
T3 construct: one g rat brain was homogenized; from tissue; host or cells: rat brain homogenate
T3 sequence (Q8R431 1-303): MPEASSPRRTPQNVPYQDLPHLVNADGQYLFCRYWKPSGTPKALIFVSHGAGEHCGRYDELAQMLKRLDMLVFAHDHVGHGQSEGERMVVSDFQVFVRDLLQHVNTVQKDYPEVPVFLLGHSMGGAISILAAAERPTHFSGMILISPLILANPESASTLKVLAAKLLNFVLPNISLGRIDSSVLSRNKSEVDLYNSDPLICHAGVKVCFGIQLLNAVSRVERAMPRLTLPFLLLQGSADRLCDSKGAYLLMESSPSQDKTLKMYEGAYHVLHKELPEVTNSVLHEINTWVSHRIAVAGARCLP
Put plainly: 2-AG accumulation assay in rat brain homogenate. The following applies: compound @1 μM, read-out: Rat Brain 2AG % VehCntrl (%) @1 μM. In kind it is biochemical. The essentials: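 Rat brain homogenate was incubated with compound for 15 min at 37° C., after which CaCl2 was added to a final concentration of 10 mM. Incubation then continued for another 15 min at 37° C. in 5 mL total volume. Reactions were stopped by adding 6 mL of 2:1 chloroform/methanol. 2-AG in the organic phase was quantified by HPLC/MS.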

In assay [4] the target is T4, purified wild type MGL (wt-MGLL 6H-11-313) (Homo sapiens, UniProt Q99685).
T4 construct: purified wild type MGL (wt-MGLL 6H-11-313)
T4 sequence (Q99685 1-303): T1 sequence (Q99685 1-303 L169S/L176S) with S169L, S176L
Put plainly: MGL enzyme activity assay (4MU-B cleavage), wild type MGL. Format: biochemical. The following applies: 10 μM 4MU-B, 5 nM enzyme, 37° C., read-out: MGL wild type inh IC50. The gist of the method:
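Enzyme (5 nM final) cleaved 4MU-B (10 μM final) in 20 mM PIPES pH 7.0 with 150 mM NaCl and 0.001% Tween 20. Compounds were tested at 17 to 0.0003 μM final. Fluorescence (ex 335/em 440 nm) was monitored at 37° C for 5 min, and IC50 was fitted from fractional activity versus inhibitor concentration.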

The mark [5] stands for this setting: 0.07 mg/ml mutant MGL, pH=7.0, read-out: MGL mutant ThermoFluor Kd.
[6] abbreviates: compound concentration measured by qNMR, read-out: MGL mutant ThermoFluor qKd (using qNMR conc.).

Changes are numbered by the printed parent chain. Where two headings read alike, the source gives them in different places.

As to `O=C(c1ccc(-c2ccccc2)cc1)N1CC(C2CCN(C(=O)c3cscn3)CC2)C1` [Cpd 1, 4-[1-(Biphenyl-4-ylcarbonyl)azetidin-3-yl]-1-(1,3-thiazol-4-ylcarbonyl)piperidine], in assay [1] (setting [5]), the Kd is 100 nM. The IC50 in assay [2] was 79 nM; in assay [4], 258 nM. Besides, the 2-AG accumulation, percent of vehicle control at 1 µM in assay [3] is 109%.
As for `O=C(c1ccc[nH]1)N1CC(C2CCN(C(=O)c3sc4cc(C(F)(F)F)ccc4c3Cl)CC2)C1` [Cpd 71, 1-{[3-Chloro-6-(trifluoromethyl)-1-benzothiophen-2-yl]carbonyl}-4-[1-(1H-pyrrol-2-ylcarbonyl)azetidin-3-yl]piperidine], the Kd in assay [1] (setting [6]) came out at 1.2 nM. Besides, the 2-AG accumulation, percent of vehicle control at 1 µM in assay [3] was 552%. The IC50 in assay [4] stood at 12 nM.
Regarding `O=C(c1ccc[nH]1)N1CC(C2CCN(C(=O)c3ccc(-c4ccccc4)cc3F)CC2)C1` [Cpd 47, 1-[(3-Fluorobiphenyl-4-yl)carbonyl]-4-[1-(1H-pyrrol-2-ylcarbonyl)azetidin-3-yl]piperidine], the Kd in assay [1] (setting [5]) turned out to be 76.7 nM; in assay [1] (setting [6]), 33.3 nM. Further, the 2-AG accumulation, percent of vehicle control at 1 µM in assay [3] was 153%. Also, the IC50 in assay [4] came to 37.9 nM.
As to `O=C(c1cccc(-c2cccc(F)c2)c1)N1CCC(C2CN(C(=O)c3cscn3)C2)CC1` [Cpd 52, 1-[(3′-Fluorobiphenyl-3-yl)carbonyl]-4-[1-(1,3-thiazol-4-ylcarbonyl)azetidin-3-yl]piperidine], the Kd in assay [1] (setting [5]) turned out to be 30.4 nM; in assay [1] (setting [6]), 32.2 nM. The 2-AG accumulation, percent of vehicle control at 1 µM in assay [3] was 193%. Besides, the IC50 in assay [4] came out at 71.5 nM.
`O=C(c1ccc2c(ccn2-c2ccc(F)c(F)c2)c1)N1CC(C2CCN(C(=O)c3ccc[nH]3)CC2)C1` [Cpd 44]: in assay [1] (setting [6]), the Kd was determined as 21.3 nM. The 2-AG accumulation, percent of vehicle control at 1 µM in assay [3] turned out to be 107%. Also, in assay [4], the IC50 is below 5 nM.
Take `O=C(c1ccc(-c2ccccc2)cc1)N1CC(C2CCN(C(=O)c3nccs3)CC2)C1` [Cpd 2, 4-[1-(Biphenyl-4-ylcarbonyl)azetidin-3-yl]-1-(1,3-thiazol-2-ylcarbonyl)piperidine]: in assay [1] (setting [5]), the Kd came to 8.9 nM. The IC50 in assay [2] and in assay [4] was below 5 nM each time. The 2-AG accumulation, percent of vehicle control at 1 µM in assay [3] amounted to 329%.
In the case of `O=C(c1cscn1)N1CC(C2CCN(C(=O)c3sc4cc(C(F)(F)F)ccc4c3Cl)CC2)C1` [Cpd 70, 1-{[3-Chloro-6-(trifluoromethyl)-1-benzothiophen-2-yl]carbonyl}-4-[1-(1,3-thiazol-4-ylcarbonyl)azetidin-3-yl]piperidine], in assay [1] (setting [6]), the Kd is 0.6 nM. Besides, the 2-AG accumulation, percent of vehicle control at 1 µM in assay [3] is 561%. Moreover, in assay [4], the IC50 is 8 nM.
Consider `O=C(c1ccc2c(ccn2-c2ccc(C(F)(F)F)cc2)c1)N1CC(C2CCN(C(=O)c3cscn3)CC2)C1` [Cpd 37, 5-({3-[1(1,3 -Thiazol-4-ylcarbonyl)piperidin-4-yl]azetidin-1-yl}carbonyl)-1-[4-(trifluoromethyl)phenyl]-1H-indole], for which the Kd in assay [1] (setting [5]) came out at 16 nM. For the same molecule, the 2-AG accumulation, percent of vehicle control at 1 µM in assay [3] came out at 163%. In assay [4], the IC50 was below 5 nM.
In the same order, the values of `O=C(c1ccc(-c2cccc(C(F)(F)F)c2)cc1)N1CC(C2CCN(C(=O)c3cscn3)CC2)C1` [Cpd 10, 1-(1,3-Thiazol-4-ylcarbonyl)-4-(1-{[3′-(trifluoromethyl)biphenyl-4-yl]carbonyl}azetidin-3-yl)piperidine] are 11 nM, 194% and 15.5 nM.
The like results for `O=C(c1ccc[nH]1)N1CCC(C2CN(C(=O)c3ccc(-c4ccccc4)cc3F)C2)CC1` [Cpd 21, 4-{1-[(3-Fluorobiphenyl-4-yl)carbonyl]azetidin-3-yl}-1-(1H-pyrrol-2-ylcarbonyl)piperidine] were, in that order, 28.6 nM, 287% and 12.4 nM.
For the molecule `O=C(c1ccc2c(ccn2-c2ccc(C(F)(F)F)cc2)c1)N1CCC(C2CN(C(=O)c3cscn3)C2)CC1` [Cpd 76, 5-({4-[1(1,3-Thiazol-4-ylcarbonyl)azetidin-3-yl]piperidin-1-yl}carbonyl)-1-[4-(trifluoromethyl)phenyl]-1H-indole], the Kd in assay [1] (setting [6]) stood at 8.3 nM. Besides, the 2-AG accumulation, percent of vehicle control at 1 µM in assay [3] is 731%. Moreover, the IC50 in assay [4] was 11.4 nM.
As for `O=C(c1ccc(-c2ccc(C(F)(F)F)s2)cc1)N1CCC(C2CN(C(=O)c3cscn3)C2)CC1` [Cpd 55, 4-[1-(1,3-Thiazol-4-ylcarbonyl)azetidin-3-yl]-1-({4-[5-(trifluoromethyl)thiophen-2-yl]phenyl}carbonyl)piperidine], the Kd in assay [1] (setting [6]) was 2 nM. The 2-AG accumulation, percent of vehicle control at 1 µM in assay [3] stood at 733%. Moreover, the IC50 in assay [4] was determined as 13 nM.
For `Cc1c(C(=O)N2CCC(C3CN(C(=O)c4nccs4)C3)CC2)sc2cc(C(F)(F)F)ccc12` [Cpd 60, 1-{[3-Methyl-6-(trifluoromethyl)-1-benzothiophen-2-yl]carbonyl}-4-[1-(1,3-thiazol-2-ylcarbonyl)azetidin-3-yl]piperidine], the Kd in assay [1] (setting [5]) came to 0.8 nM; in assay [1] (setting [6]), 0.5 nM. Also, the 2-AG accumulation, percent of vehicle control at 1 µM in assay [3] was determined as 508%. Also, the IC50 in assay [4] came to 10 nM.
On to `O=C(c1ccc(-c2ccc(C(F)(F)F)s2)cc1)N1CC(C2CCN(C(=O)c3ccc[nH]3)CC2)C1` [Cpd 24, 1-(1H-Pyrrol-2-ylcarbonyl)-4-[1-({4-[5-(trifluoromethyl)thiophen-2-yl]phenyl}carbonyl)azetidin-3-yl]piperidine], for which the Kd in assay [1] (setting [5]) was found to be 19.9 nM. The 2-AG accumulation, percent of vehicle control at 1 µM in assay [3] stood at 298%. Further, in assay [4], the IC50 came out at 37.9 nM.
For the molecule `Cc1c(C(=O)N2CC(C3CCN(C(=O)c4ccc[nH]4)CC3)C2)sc2cc(C(F)(F)F)ccc12` [Cpd 26, 4-(1-{[3-Methyl-6-(trifluoromethyl)-1-benzothiophen-2-yl]carbonyl}azetidin-3-yl)-1-(1H-pyrrol-2-ylcarbonyl)piperidine], the Kd in assay [1] (setting [5]) is 3.6 nM. The 2-AG accumulation, percent of vehicle control at 1 µM in assay [3] amounted to 303%. For the same molecule, the IC50 in assay [4] is below 5 nM.
For the molecule `O=C(c1ccc2c(ccn2-c2ccc(F)cc2)c1)N1CCC(C2CN(C(=O)c3ccc[nH]3)C2)CC1` [Cpd 74, 1-(4-Fluorophenyl)-5-({4-[1-(1H-pyrrol-2-ylcarbonyl)azetidin-3-yl]piperidin-1-yl}carbonyl)-1H-indole], the Kd in assay [1] (setting [6]) came to 8 nM. The 2-AG accumulation, percent of vehicle control at 1 µM in assay [3] was 788%. For the same molecule, the IC50 in assay [4] worked out at 13.8 nM.
